From PubChem BioAssay (NCI) come the findings set out here.

Holding throughout (experiment): DTP human tumour cell line panel, 48 h
In assay [1] the test system is DU-145 prostate.
In assay [2] the test system is OVCAR-4 ovarian.
Assay [3] relates to A549 NSCLC.
Assay [4] relates to SNB-19 CNS.
Assay [5] has as its system SN12C renal.
The subject of assay [6] is HL-60(TB) leukemia.
In assay [7] the test system is U251 CNS.
Assay [8] deals with 786-0 renal.
Assay [9] has as its system ACHN renal.
Assay [10] relates to HOP-92 NSCLC.

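1) Cells in 96-well plates. 2) Compound, 48 h, 5 concentrations. 3) Linear interpolation between surrounding doses. 4) Unreached endpoint = highest concentration. GI50: concentration for 50% inhibition of growth. TGI denotes the concentration required for complete inhibition of growth.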

One may read the GI50 as the concentration giving 50% growth inhibition. As usually defined, the TGI is the concentration at which net growth stops. A high value points to less potent growth arrest. Take `Cc1nc2sc(C(=O)Nc3cccc4ccccc34)c(N)c2cc1C(C)O` (stereo not given): the GI50 is 0.247 µM in assay [1]; 1.51 µM in [2]; 0.345 µM in assay [3]; 0.244 µM in assay [4]; 0.425 µM in assay [5]; 0.124 µM in [6]. The GI50 is 0.227 µM in assay [7], 0.227 µM in assay [8], 0.284 µM in assay [9] and 1.03 µM in [10]. In addition, the TGI in assay [1] was more than 50 µM; in assay [2] it was more than 50 µM; in assay [3], more than 50 µM; in assay [4], more than 50 µM; in [5] it was more than 50 µM; in [6], 0.355 µM. Besides, the total growth inhibition concentration (TGI) in [7] was more than 50 µM; in assay [8] it was more than 50 µM; in [9], more than 50 µM; in assay [10] it was more than 47 µM.
For `COc1ccc2c(c1)O/C(=C\c1cccc(OCC(=O)Nc3nc4ccccc4s3)c1)C2=O`, the GI50 was 3.57 µM in assay [1]; 22.3 µM in [2]; 39.8 µM in [3]; more than 57.8 µM in [4]; 2.82 µM in assay [5]; 4.68 µM in assay [6]. In addition, the GI50 was 12.6 µM in assay [7], more than 66.4 µM in assay [8], 12.7 µM in assay [9] and 2.65 µM in assay [10]. Further, the concentration for total growth inhibition (TGI) in assay [1] was 21.9 µM; in assay [2] it was more than 100 µM; in assay [3], more than 100 µM; in assay [4], more than 100 µM; in assay [5], more than 100 µM; in assay [6] it was more than 63 µM. Besides, the TGI is 53.3 µM in [7], more than 100 µM in assay [8], more than 100 µM in assay [9] and 18.4 µM in [10].
Consider `Cc1cc(N(CCCl)CCCl)ccc1C=Nc1cccnc1`, for which the GI50 in assay [1] was 4.62 µM; in assay [2], 22.4 µM; in assay [3], 14.3 µM; in [4], 59.9 µM; in assay [5], 10.6 µM; in [6], 1.58 µM. Further, the GI50 in [7] is 18.5 µM; in [8], 6.6 µM; in assay [9] it was 5.38 µM; in assay [10] it was 13.9 µM. For the same molecule, the TGI in assay [1] is 42.9 µM; in [2] it was more than 100 µM; in [3], more than 100 µM; in [4], more than 100 µM; in assay [5], more than 100 µM; in [6] it was 30 µM. In addition, the TGI in assay [7] was more than 100 µM; in assay [8] it was more than 69.1 µM; in assay [9] it was more than 100 µM; in assay [10] it was 68.2 µM.
For the molecule `O=C(NNc1nc2cc(F)ccc2n2c(CN3CCOCC3)ccc12)c1ccccc1`, the GI50 in [1] is 0.358 µM; in [2] it was 0.152 µM; in assay [3], 0.303 µM; in assay [4] it was 0.311 µM; in assay [5], 0.399 µM; in assay [6] it was 0.25 µM. Besides, the GI50 in [7] was 0.207 µM; in assay [8], 0.305 µM; in assay [9], 0.079 µM; in assay [10], 0.791 µM. For the same molecule, the concentration for total growth inhibition (TGI) in assay [1] was found to be 4.78 µM; in assay [2] it was 1.39 µM; in assay [3], 2.25 µM; in assay [4], 2.27 µM; in assay [5], 2.18 µM; in assay [6], 0.931 µM. The concentration for total growth inhibition (TGI) in [7] was 2.19 µM; in assay [8] it was 1.98 µM; in assay [9], 1.41 µM; in assay [10], 2.87 µM.
As for `Cc1ccc(NS(=O)(=O)c2ccc(-c3cnc(C4CC4)o3)cc2)cc1`, the GI50 was 3.99 µM in [1]; 3.87 µM in assay [2]; 4.55 µM in assay [3]; 3.88 µM in assay [4]; 4.1 µM in [5]; 2.47 µM in [6]. Also, the GI50 in [7] is 4.18 µM; in assay [8], 6.4 µM; in assay [9], 4.43 µM; in [10], 2.14 µM. Further, the total growth inhibition concentration (TGI) in [1] is 16.5 µM; in [2] it was 17.6 µM; in assay [3] it was 26.2 µM; in [4] it was 16.6 µM; in assay [5], 17.2 µM; in [6], 9.71 µM. The TGI worked out at 17.5 µM in assay [7], 21 µM in assay [8], 18.4 µM in [9] and 13.2 µM in assay [10].
In the case of `Brc1c[n+](Cc2ccc3ccccc3c2)cn1Cc1ccc2ccccc2c1`, the GI50 in assay [1] is 2.54 µM; in assay [2], 1.32 µM; in [3], 6.9 µM; in assay [4], 1.41 µM; in [5] it was 1.52 µM; in [6], 1.15 µM. Besides, the GI50 in assay [7] is 1.67 µM; in assay [8], 1.75 µM; in [9] it was 11.8 µM; in [10], 0.904 µM. Moreover, the concentration for total growth inhibition (TGI) stood at 7.75 µM in [1]; 2.76 µM in [2]; 29.4 µM in assay [3]; 2.75 µM in assay [4]; 2.94 µM in assay [5]; 3.68 µM in assay [6]. The TGI in assay [7] is 3.51 µM; in assay [8] it was 3.33 µM; in assay [9], 25.5 µM; in [10], 2.39 µM.
For the molecule `CN(C(=O)C1CCCCC1)c1ccccc1I(=O)=O`, the GI50 in assay [1] is 55.9 µM; in assay [2], 33.2 µM; in [3], 55.9 µM; in [4] it was 40.3 µM; in assay [5] it was 79.4 µM; in assay [6], 13.5 µM. Further, the GI50 was 31.3 µM in [7], 43.3 µM in assay [8], 39.4 µM in assay [9] and 26.1 µM in assay [10]. For the same molecule, the TGI in assay [1] was more than 100 µM; in assay [2], more than 100 µM; in [3], more than 100 µM; in assay [4] it was more than 100 µM; in [5] it was more than 100 µM; in [6], 36.8 µM. The TGI was more than 100 µM in [7], more than 100 µM in assay [8], more than 100 µM in assay [9] and 67 µM in assay [10].
